Assay [1] relates to SNU-5. The assay is described as follows: OncoPanel cell proliferation assay, SNU-5. The class given is cell-based, human. The note with it: SNU-5, scale 0-10. On the procedure:
(§1) Cells were seeded into 384-well plates and incubated in a humidified atmosphere of 5% CO2 at 37° C. Compounds were added the day following cell seeding. At the same time, a time zero untreated cell plate was generated. After a 3-day incubation period, cells were fixed and stained to allow fluorescence imaging of nuclei. Compounds (1 mM stock solutions) were serially diluted in half-log steps from the highest test concentration ([…]), and assayed over 10 concentrations with a maximum assay concentration of 0.1% DMSO. Automated fluorescence microscopy was carried out using a Molecular Devices ImageXpress Micro XL high-content imager, and images were collected with a 4× objective. 16-bit TIFF images were acquired and analyzed with MetaXpress 5.1.0.41 software.
(§2) Cell proliferation was measured by the fluorescence intensity of an incorporated nuclear dye. The output is referred to as the relative cell count, where the measured nuclear intensity is transformed to percent of control (POC) using the following formula: […]
(§3) Cellular response parameters were calculated using nonlinear regression to a sigmoidal single-site dose response model:
(§4) Where y is a response measured at concentration x, A and B are the lower and upper limits of the response, C is the concentration at the response midpoint (EC50), and D is the Hill Slope (Ref. 1).
(§5) GI50 is the concentration needed to reduce the observed growth by half (midway between the curve maximum and the time zero value). […] In rare instances, values <0 or >10 may be observed. […] Curve-fitting, calculations, and report generation was performed using a custom data reduction engine and MathIQ based software (AIM).

In assay [2] the test system is A388. In words: OncoPanel cell proliferation assay, A388. The note with it: A388, scale 0-10. The class given is cell-based, human. As to the method:
as §1, §2, §3, §4, §5

The test system of assay [3] is DMS114. In words: OncoPanel cell proliferation assay, DMS114. The note with it: Homo sapiens, DMS-114, 72 h; DMS114, 3-day incubation; read-out: Cell Count EC50. The class given is cell-based, human. On the procedure: as §1, §2, §3, §4, §5
The test system of assay [4] is PC-3. The assay is described as follows: OncoPanel cell proliferation assay, PC-3. The note with it: PC-3, scale 0-10.
Experimental: Cells were seeded into 384-well plates and incubated in a humidified atmosphere of 5% CO2 at 37° C. Compounds were added the day following cell seeding. At the same time, a time zero untreated cell plate was generated. After a 3-day incubation period, cells were fixed and stained to allow fluorescence imaging of nuclei. Compounds (1 mM stock solutions) were serially diluted in half-log steps from the highest test concentration (1 micromol), and assayed over 10 concentrations with a maximum assay concentration of 0.1% DMSO. Automated fluorescence microscopy was carried out using a Molecular Devices ImageXpress Micro XL high-content imager, and images were collected with a 4× objective. 16-bit TIFF images were acquired and analyzed with MetaXpress 5.1.0.41 software.
For assay [5], the system named is SW684. The assay is described as follows: OncoPanel cell proliferation assay, SW684. The note with it: Homo sapiens, 72 h; SW684, 3-day incubation; read-out: Cell Count GI50. The class given is cell-based, human. As to the method: as §1, §2, §3, §4, §5
Assay [6] concerns U-138MG. In words: OncoPanel cell proliferation assay, U-138MG. The note with it: U-138MG, scale 0-10. The class given is cell-based, human. As to the method:
as §1, with “Cells were grown in RPMI 1640, 10% FBS, 2 mM L-alanyl-L-glutamine, 1 mM Na pyruvate, or a special medium. Cells” for “Cells”
as §2, §3, §4
(§6) EC50 is the test compound concentration at the curve inflection point or half the effective response (parameter C of the fitted curve solution). GI50 is the concentration needed to reduce the observed growth by half (midway between the curve maximum and the time zero value). “Cell Count Activity Area” is an estimate of the integrated area above the curve (Barretina, et al. The Cancer Cell Line Encyclopedia enables predictive modelling of anticancer drug sensitivity. Nature 483: 603-607). […] In rare instances, values <0 or >10 may be observed. […] Curve-fitting, calculations, and report generation was performed using a custom data reduction engine and MathIQ based software (AIM).

The test system of assay [7] is SK-N-AS. The assay is described as follows: OncoPanel cell proliferation assay, SK-N-AS. The class given is cell-based, human. On the procedure: as §1, with “Cells were grown in RPMI 1640, 10% FBS, 2 mM L-alanyl-L-glutamine, 1 mM Na pyruvate, or a special medium. Cells” for “Cells”
as §2, §3, §4, §6

Assay [8] has as its system CEM-C1. In words: OncoPanel cell proliferation assay, CEM-C1. The class given is cell-based, human. As to the method: as §1, with “Cells were grown in RPMI 1640, 10% FBS, 2 mM L-alanyl-L-glutamine, 1 mM Na pyruvate, or a special medium. Cells” for “Cells”
as §2, §3, §4, §6

Assay [9] deals with AGS. The assay is described as follows: OncoPanel cell proliferation assay, AGS. The class given is cell-based, human. The note with it: scale 0-10. On the procedure:
as §1, with “Cells were grown in RPMI 1640, 10% FBS, 2 mM L-alanyl-L-glutamine, 1 mM Na pyruvate, or a special medium. Cells” for “Cells”
as §2, §3, §4, §6

Assay [10] concerns SW579. In words: OncoPanel cell proliferation assay, SW579. The class given is cell-based, human. As to the method:
as §1, with “Cells were grown in RPMI 1640, 10% FBS, 2 mM L-alanyl-L-glutamine, 1 mM Na pyruvate, or a special medium. Cells” for “Cells”
as §2, §3, §4, §6

Assay [11] deals with SCaBER. The assay is described as follows: OncoPanel cell proliferation assay, SCaBER. The class given is cell-based, human. The note with it: scale 0-10. As to the method:
as §1, with “Cells were grown in RPMI 1640, 10% FBS, 2 mM L-alanyl-L-glutamine, 1 mM Na pyruvate, or a special medium. Cells” for “Cells”
as §2, §3, §4, §6

Assay [12] concerns SNU-C2B. The assay is described as follows: OncoPanel cell proliferation assay, SNU-C2B. The class given is cell-based, human. The note with it: scale 0-10. On the procedure: as §1, with “Cells were grown in RPMI 1640, 10% FBS, 2 mM L-alanyl-L-glutamine, 1 mM Na pyruvate, or a special medium. Cells” for “Cells”
as §2, §3, §4, §6

On to `CN[C@@H]1C[C@H]2O[C@@](C)([C@@H]1OC)n1c3ccccc3c3c4c(c5c6ccccc6n2c5c31)C(=O)NC4` [Staurosporine, reference compound], for which the “Cell Count Activity Area” value in assay [1] is 2.58; in [2] it was 4.99; in assay [4], 4.67; in assay [6], 3.72; in [7] (scale 0-10) it was 4.83; in assay [8] (CEM-C1, scale 0-10) it was 4.28. Besides, the “Cell Count Activity Area” value came to 6.19 in assay [9]; 6.09 in assay [10] (SW579, scale 0-10); 6.03 in assay [11]; 3.80 in assay [12]. Moreover, the EC50 was 21 nM in assay [3]; 1.7 nM in assay [7] (Homo sapiens, 72 h, 3-day incubation, read-out: Cell Count EC50); 0.52 nM in assay [10] (Homo sapiens, 72 h, SW579, 3-day incubation, read-out: Cell Count EC50). Further, the GI50 in [5] came to 0.95 nM. Besides, in assay [8] (Homo sapiens, 72 h, CEM-C1, 3-day incubation, read-out: Cell Count IC50), the IC50 came to 9.2 nM.

For orientation: EC50 means the midpoint of the concentration-response curve. Broadly, the GI50 is the concentration at which growth is held to half of that of the control. Broadly, the IC50 is the point on the concentration scale where inhibition reaches its midpoint.

The values above are taken from US20210024542A1 (Torcept Therapeutics, Inc., priority 2018, published 2021).
